Experimental data taken from ChEMBL document CHEMBL1201862, “PubChem BioAssay data set” (2004).
The source made the active and inactive calls.

How the values were obtained:
Cytochrome P450 2C9 = Cytochrome P450 2C9 (Homo sapiens, UniProt P11712)
[1] = biological target: T1, Heat shock factor protein 1 (Mus musculus, UniProt P38532); assay: inhibition of MG132-induced HSE-luciferase signal, confirmation, cell-based, NIH3T3, luminescence, dose retest (AID 2382); format: functional;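 further: NIH3T3 fibroblasts with HSF1-driven luciferase reporter stressed by proteasome inhibitor MG132; luminescence from HSF1-driven luciferase expression after 8 hours of MG132 stress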
T1 sequence (P38532 whole entry): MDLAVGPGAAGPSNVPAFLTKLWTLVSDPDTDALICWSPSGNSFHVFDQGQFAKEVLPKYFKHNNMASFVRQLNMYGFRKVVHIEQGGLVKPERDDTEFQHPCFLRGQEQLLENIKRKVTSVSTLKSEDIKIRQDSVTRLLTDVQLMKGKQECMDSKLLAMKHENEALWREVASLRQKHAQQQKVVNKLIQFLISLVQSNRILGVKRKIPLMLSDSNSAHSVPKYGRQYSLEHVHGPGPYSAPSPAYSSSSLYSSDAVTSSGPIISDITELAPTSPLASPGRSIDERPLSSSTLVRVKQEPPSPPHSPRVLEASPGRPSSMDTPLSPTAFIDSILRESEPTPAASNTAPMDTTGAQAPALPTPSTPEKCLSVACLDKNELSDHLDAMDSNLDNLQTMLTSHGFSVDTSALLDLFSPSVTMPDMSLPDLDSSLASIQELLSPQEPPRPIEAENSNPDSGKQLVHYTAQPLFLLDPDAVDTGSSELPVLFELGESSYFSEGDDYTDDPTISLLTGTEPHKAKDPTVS

[2] = inhibitors of intracellular T. cruzi replication, confirmation, NIH3T3 host cells, beta-gal luminescence (AID 2044); format: functional, cell-based;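 further: intracellular parasites grown in NIH/3T3 mouse fibroblasts as host cells; luminescent beta-galactosidase reporter signal from transgenic T. cruzi replicating inside host cells; inhibitors lower the luminescence signal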
[3] = cytotoxicity toward NIH3T3 fibroblasts, dose response, counter-screen, cell-based, ATP luminescence, mouse fibroblasts (AID 2010); format: functional;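 further: cells exposed to compound for about 90 hours before reading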
Cytochrome P450 3A4 = Cytochrome P450 3A4 (Homo sapiens, UniProt P08684);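 further: CYP3A4 tested as one member of a cytochrome P450 panel screen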
Sequence of Cytochrome P450 3A4 (P08684 whole entry): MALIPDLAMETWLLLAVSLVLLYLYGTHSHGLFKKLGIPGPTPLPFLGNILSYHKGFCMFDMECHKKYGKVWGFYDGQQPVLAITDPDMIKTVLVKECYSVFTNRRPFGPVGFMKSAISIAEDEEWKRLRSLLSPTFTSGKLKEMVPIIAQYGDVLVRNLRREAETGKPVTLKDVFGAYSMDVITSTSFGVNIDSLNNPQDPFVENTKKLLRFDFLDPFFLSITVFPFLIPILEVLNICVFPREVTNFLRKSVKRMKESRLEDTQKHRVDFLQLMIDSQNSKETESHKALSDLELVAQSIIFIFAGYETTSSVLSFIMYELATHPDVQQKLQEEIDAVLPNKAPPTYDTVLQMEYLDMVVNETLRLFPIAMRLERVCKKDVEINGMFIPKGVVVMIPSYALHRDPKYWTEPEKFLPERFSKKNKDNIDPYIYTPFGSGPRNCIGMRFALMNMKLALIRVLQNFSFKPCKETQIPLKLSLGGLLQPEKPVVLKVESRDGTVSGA

Cytochrome P450 2C19 = Cytochrome P450 2C19 (Homo sapiens, UniProt P33261); assay: Cytochrome panel assay with activity outcomes. Panel member name: p450-cyp2c19 Compounds with AC50 equal or less than 10 uM are considered active; format: functional
Sequence of Cytochrome P450 2C19 (P33261 whole entry): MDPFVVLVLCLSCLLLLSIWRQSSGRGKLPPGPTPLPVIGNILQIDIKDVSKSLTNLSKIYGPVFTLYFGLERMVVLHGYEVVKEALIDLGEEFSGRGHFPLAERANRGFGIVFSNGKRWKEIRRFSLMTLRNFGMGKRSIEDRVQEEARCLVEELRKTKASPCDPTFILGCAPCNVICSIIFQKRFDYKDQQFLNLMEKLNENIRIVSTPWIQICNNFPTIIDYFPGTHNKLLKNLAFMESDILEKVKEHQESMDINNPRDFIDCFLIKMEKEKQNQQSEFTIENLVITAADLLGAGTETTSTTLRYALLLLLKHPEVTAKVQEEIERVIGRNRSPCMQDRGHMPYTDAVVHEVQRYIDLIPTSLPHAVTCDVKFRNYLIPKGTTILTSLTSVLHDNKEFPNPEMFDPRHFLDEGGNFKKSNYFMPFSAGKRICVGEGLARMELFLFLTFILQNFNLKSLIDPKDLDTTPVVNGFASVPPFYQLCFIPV

Sequence of Cytochrome P450 2C9 (P11712 whole entry): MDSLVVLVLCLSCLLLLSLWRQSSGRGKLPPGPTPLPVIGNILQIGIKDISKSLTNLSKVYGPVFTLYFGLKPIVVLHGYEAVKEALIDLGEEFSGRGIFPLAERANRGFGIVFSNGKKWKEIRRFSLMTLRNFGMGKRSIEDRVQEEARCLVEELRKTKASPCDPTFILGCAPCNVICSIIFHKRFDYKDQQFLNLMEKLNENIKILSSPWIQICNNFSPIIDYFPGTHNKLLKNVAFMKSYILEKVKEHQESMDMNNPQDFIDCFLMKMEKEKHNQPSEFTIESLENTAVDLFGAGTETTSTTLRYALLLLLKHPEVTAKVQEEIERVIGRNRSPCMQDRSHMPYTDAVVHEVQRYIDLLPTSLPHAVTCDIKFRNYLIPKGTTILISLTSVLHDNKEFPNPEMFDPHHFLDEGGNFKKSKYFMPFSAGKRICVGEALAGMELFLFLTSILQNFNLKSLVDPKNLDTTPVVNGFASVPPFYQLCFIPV

SMILES: O=C(NCCc1ccccn1)c1cc(C(=O)C2CCCCC2)c[nH]1
- AC50 (Cytochrome P450 2C9): 0.158 µM (inconclusive)

SMILES: Cc1cc([N+](=O)[O-])nn1CC(=O)NCc1nc2ccccc2[nH]1
- EC50 [1]: > 195 µM (not active)

SMILES: CN(C)c1ncc(CN2CCC(CO)(CCCc3ccccc3)CC2)s1
- EC50 [2]: 0.996 µM (active)
- EC50 [3]: > 60 µM (not active)

SMILES: N#CC1=C(N)N(c2ccc(Oc3ccccc3)cc2)C(=O)C1
- EC50 [1]: > 195 µM (not active)

SMILES: COCCn1c(=O)c(-c2ccc(OC)cc2)nc2cnc(OCc3ccccc3)nc21
- AC50 (Cytochrome P450 3A4): 25.1 µM (inconclusive)

SMILES: O[C@@H](COc1cccc2ccccc12)CN1CCOCC1
- AC50 (Cytochrome P450 2C19; read-out: AC50): 0.0501 µM (inconclusive)

SMILES: O=C(c1ccco1)N1CCN(S(=O)(=O)/C=C/c2ccccc2)CC1
- EC50 [1]: > 195 µM (not active)

SMILES: CC(=O)O[C@H]1C2=CO[C@H](C)[C@H]3C4C5=C([C@@H](O[C@H]4C)[C@@]23C(=O)[C@H]2O[C@@H]21)[C@H](O)[C@H]1O[C@@H]1C5=O
- AC50 (Cytochrome P450 3A4): 3.98 µM (inconclusive)

SMILES: COc1ccccc1CN1CCN(Cc2nc(Cc3ccccc3)no2)CC1
- EC50 [2]: 0.754 µM (active)
- EC50 [3]: > 30 µM (not active)

SMILES: Cc1ccc(C(=N)NOC(=O)Cc2cccs2)cc1
- AC50 (Cytochrome P450 3A4): 28.2 µM (inconclusive)

SMILES: Cc1ccc(CNC(=O)C2CCCN2C(=O)NCc2ccccc2)cc1 (stereo not given)
- AC50 (Cytochrome P450 2C9): 11.2 µM (inconclusive)

SMILES: CCCc1cc2c(n1CCO)C(C)C1CN(C(=O)c3ccccc3)C(C)(C(=O)OC)C21 (stereo not given)
- AC50 (Cytochrome P450 2C19; read-out: AC50): 3.16 µM (inconclusive)

SMILES: CC(=O)OCC1=C(C(=O)O)N2C(=O)[C@@H](NC(=O)CCC[C@@H](N)C(=O)O)[C@@H]2SC1
- AC50 (Cytochrome P450 2C9): 39.8 µM (inconclusive)

SMILES: Sc1c2ncnc-2ncn1CCSc1[nH]cnc2ncnc1-2
- AC50 (Cytochrome P450 2C19): inconclusive

SMILES: Cc1c(C)n(CCCN(C)C)c2ncnc(NC3CCCCC3)c12
- EC50 [2]: 0.603 µM (active)
- EC50 [3]: > 60 µM (not active)

SMILES: O=C(Nc1cccnc1)c1noc2c1CCCCC2
- EC50 [1]: 0.288 µM (active)

SMILES: Cc1oc(-c2ccccc2F)nc1C[S+]([O-])CC(=O)N1CCC2(CC1)OCCO2 (stereo not given)
- AC50 (Cytochrome P450 2C9): 20 µM (inconclusive)

SMILES: CN1CCN(NC(=O)c2cc([N+](=O)[O-])cc([N+](=O)[O-])c2)CC1
- EC50 [2]: 2.33 µM (active)
- EC50 [3]: > 30 µM (not active)

SMILES: COc1ccccc1CN1CCCC(N2CCN(c3ccc(F)cc3)CC2)C1 (stereo not given)
- EC50 [2]: 0.253 µM (active)
- EC50 [3]: 10.1 µM (active)

SMILES: COc1ccccc1NC(=O)C1CCN(C(=O)C2CC(=O)N(c3ccc(C)cc3)C2)CC1 (stereo not given)
- EC50 [1]: > 195 µM (not active)

SMILES: N#Cc1ccccc1NC(=O)c1ccccc1OCC(=O)Nc1ccc2c(c1)oc1ccccc12
- EC50 [2]: 2.85 µM (active)
- EC50 [3]: 47.3 µM (active)

SMILES: CCN1CCCc2cc(CN(CCN3CCOCC3)C(S)=Nc3ccccc3OC)ccc21
- EC50 [2]: 1.53 µM (active)
- EC50 [3]: > 60 µM (not active)

SMILES: O=S(=O)(NCc1ccc(C(F)(F)F)cc1)c1ccc(-n2cnnn2)cc1
- EC50 [1]: > 195 µM (not active)

SMILES: CCN(CC)C(=O)C1CCCN(c2ccc([N+](=O)[O-])cc2/C=N/NC(=O)c2ccc([N+](=O)[O-])cc2)C1 (stereo not given)
- AC50 (Cytochrome P450 3A4): 2.82 µM (inconclusive)
- EC50 [1]: > 195 µM (not active)

SMILES: Cc1nc(N=C(N)NS(=O)(=O)c2ccc([N+](=O)[O-])cc2)nc2ccccc12
- EC50 [2]: 0.452 µM (active)
- EC50 [3]: 24.6 µM (active)

SMILES: Cn1c(=O)c(-c2ccccc2)nc2cnc(N3CCNCC3)nc21
- AC50 (Cytochrome P450 2C19; read-out: AC50): 39.8 µM (inconclusive)
- AC50 (Cytochrome P450 2C9): 15.8 µM (inconclusive)

SMILES: CC(=O)SCC[N+](C)(C)C [ACETYLTHIOCHOLINE]
- AC50 (Cytochrome P450 2C19): inconclusive

SMILES: CC(C)NC(=O)N1CC[C@@]2(CCCN(C(=O)c3csnn3)C2)C1
- AC50 (Cytochrome P450 3A4): 15.8 µM (inconclusive)

SMILES: CCCCCCN1CC(=O)N2[C@@H](Cc3c([nH]c4ccccc34)C2(C)C)C1=O
- EC50 [1]: > 195 µM (not active)

SMILES: CCOc1ccc(OCC)c(NC(=O)C2CCCN(S(=O)(=O)c3cccs3)C2)c1 (stereo not given)
- AC50 (Cytochrome P450 2C19; read-out: AC50): 2.82 µM (inconclusive)
- AC50 (Cytochrome P450 2C9): 2.51 µM (inconclusive)

SMILES: COc1ccc2[nH]cc(CCNc3ccnc(-c4cccc(NS(C)(=O)=O)c4)n3)c2c1
- AC50 (Cytochrome P450 3A4): 2.51 µM (inconclusive)
- AC50 (Cytochrome P450 2C9): 0.126 µM (inconclusive)

SMILES: CC(=O)Nc1ccc(OS(=O)(=O)c2ccccc2C)cc1
- EC50 [1]: > 195 µM (not active)

SMILES: Cc1ccc(C(=O)Nc2ccccc2C(=O)O)cc1S(=O)(=O)NCc1ccccc1
- EC50 [1]: > 195 µM (not active)

SMILES: Cn1c(SC2CCCCC2=O)nnc1-c1ccncc1 (stereo not given)
- AC50 (Cytochrome P450 3A4): 25.1 µM (inconclusive)

SMILES: O=C(COC(=O)c1cnccn1)Nc1ccc(Cl)cn1
- EC50 [1]: > 195 µM (not active)

SMILES: Nc1ccccc1S[C@@H](C[N+](=O)[O-])c1ccc2c(c1)OCO2
- AC50 (Cytochrome P450 3A4): 2.51 µM (inconclusive)
- AC50 (Cytochrome P450 2C9): 6.31 µM (inconclusive)

SMILES: COCCN(C(=O)COC(=O)/C=C/c1ccc(C(F)(F)F)cc1)c1c(N)n(Cc2ccccc2)c(=O)[nH]c1=O
- EC50 [1]: > 195 µM (not active)

SMILES: CN1CCN(c2ccc(S(=O)(=O)N3CCCCC3)cc2NC(=O)CSCc2ccccc2)CC1
- EC50 [2]: 0.315 µM (active)
- EC50 [3]: > 60 µM (not active)

SMILES: CCOC(=O)c1cncc(C(=O)O)c1
- AC50 (Cytochrome P450 2C19; read-out: AC50): 31.6 µM (inconclusive)

SMILES: CCNc1ncc2nc(CCc3ccccc3)c(=O)n(C3CC3)c2n1
- AC50 (Cytochrome P450 2C9): 3.98 µM (inconclusive)

SMILES: O=C(C1=C[C@H](c2csc3ccccc23)C[C@H](OCc2ccc(CO)cc2)O1)N1CCN(Cc2ccc3c(c2)OCO3)CC1
- EC50 [2]: 0.137 µM (active)
- EC50 [3]: > 60 µM (not active)

SMILES: CCOc1ccccc1CN1CCN(Cc2nc3ccccc3s2)CC1CCO (stereo not given)
- EC50 [2]: 1.16 µM (active)
- EC50 [3]: > 60 µM (not active)

SMILES: CCN(CC)C(=O)C1CCCN(Cc2ccc(N(C)C)cc2)C1 (stereo not given)
- EC50 [2]: 0.296 µM (active)
- EC50 [3]: > 60 µM (not active)

SMILES: O=C(c1cnccn1)N1CCC2(CCCN(c3ccccc3)C2)CC1
- AC50 (Cytochrome P450 2C9): 39.8 µM (inconclusive)

SMILES: O=S(=O)(NCCCCCCc1ccccc1)c1cccc2c(Cl)cccc12
- AC50 (Cytochrome P450 2C9): 5.01 µM (inconclusive)

SMILES: COc1cccc(-c2csc(N3CCN(C(=S)Nc4ccccc4)CC3)n2)c1
- AC50 (Cytochrome P450 2C9): 0.158 µM (inconclusive)

SMILES: Clc1ccc(OCCn2ccnc2)cc1Cl
- EC50 [2]: 2.49 µM (active)
- EC50 [3]: > 60 µM (not active)

SMILES: COc1ccc2nc3c(O)n(CCCN4CCOCC4)cnc-3c2c1
- EC50 [1]: > 195 µM (not active)

SMILES: CCN(CC)C(=O)CSc1nnc(CNc2ccc(F)cc2)o1
- AC50 (Cytochrome P450 2C19; read-out: AC50): 22.4 µM (inconclusive)
- AC50 (Cytochrome P450 3A4): 25.1 µM (inconclusive)

SMILES: N#CC(C#N)=C(N)/C(C#N)=C/c1ccc(O)cc1
- AC50 (Cytochrome P450 3A4): 39.8 µM (inconclusive)

SMILES: O=C(CCN1CCN(C/C=C/c2ccccc2)CC1)Nc1ccccc1
- EC50 [2]: 1.95 µM (active)
- EC50 [3]: > 60 µM (not active)

SMILES: O=C(NCC1CCCN(Cc2ccccc2F)C1)c1cccc(C(F)(F)F)c1 (stereo not given)
- EC50 [2]: 0.975 µM (active)
- EC50 [3]: > 60 µM (not active)

SMILES: COc1ccc(NC(=O)Cn2c(=O)n(Cc3ccco3)c(=O)c3ccccc32)cc1
- EC50 [1]: > 195 µM (not active)

SMILES: COc1ccccc1CN(C)C(=O)C1COc2ccccc2O1 (stereo not given)
- EC50 [1]: > 195 µM (not active)

SMILES: CCCn1c(NC(=O)c2ccc(F)cc2)nc2ccccc21
- EC50 [2]: 3 µM (active)
- EC50 [3]: > 60 µM (not active)

SMILES: CCOC(=O)c1ccc(S(=O)(=O)N2CCN(C)CC2)cc1
- AC50 (Cytochrome P450 2C9): 39.8 µM (inconclusive)

SMILES: COc1ccc(/C=C/C(=O)Oc2ccc(/C=N/NC(=O)COc3c(C)cccc3C)cc2)cc1
- EC50 [1]: > 195 µM (not active)

SMILES: CCOP(=O)(OCC)C(NC(=O)C(Cl)Cl)C(Cl)(Cl)Cl (stereo not given)
- AC50 (Cytochrome P450 3A4): 31.6 µM (inconclusive)
- AC50 (Cytochrome P450 2C9): 39.8 µM (inconclusive)

SMILES: COc1ccc(CCNC(=O)C2CCN(S(=O)(=O)N3CC(C)CC(C)C3)CC2)cc1OC (stereo not given)
- AC50 (Cytochrome P450 2C9): 22.4 µM (inconclusive)

SMILES: CCc1ccc(NC(=O)CSc2ccc(-c3cccnc3)nn2)cc1
- EC50 [1]: > 195 µM (not active)

SMILES: COn1c(-c2ccccc2)nc2c1CCc1nonc1-2
- AC50 (Cytochrome P450 3A4): 31.6 µM (inconclusive)
- AC50 (Cytochrome P450 2C9): 25.1 µM (inconclusive)
